Key:
[1] = test system: phosphorylated AKT Ser473 (pAKT S473), mTORC2 activity, PC3 cells; assay: mTOR target engagement assay, immunofluorescent cell-based, pAKT S473 readout (mTORC2 activity); conditions: Homo sapiens, PC-3, PC3 cells, compound treatment ninety minutes at 37° C.
Method in brief: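 After blocking, cells were stained overnight at 4 °C with anti-pAKT S473 antibody, then a fluorescent secondary; inhibition was read as reduced fluorescence intensity.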

[2] = test system: phosphorylated 4E-BP1 Thr37/46 (p4E-BP1 Thr37/46), mTORC1 activity, PC3 cells; assay: mTOR target engagement assay, immunofluorescent cell-based, p4E-BP1 Thr37/46 readout (mTORC1 activity); conditions: Homo sapiens, PC-3, PC3 cells, compound treatment ninety minutes at 37° C.; read-out: p4E-BP1 Thr37/46 IC50
Method in brief: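 Read-out is fluorescence intensity of immunostained p4E-BP1 Thr37/46 in fixed PC3 cells, fitted to a logistic curve for IC50 with DMSO-only wells as top. Cells had been exposed to serial compound dilutions for ninety minutes at 37° C in 5% FBS medium with 0.25% DMSO.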

| SMILES | IC50 [1] | IC50 [2] |
| --- | --- | --- |
| CC(=O)c1c([C@@H]2C[C@H]3CC[C@@H](C2)N3C(=O)c2nnc[nH]2)nc2c(-c3cnc4ccc(CO)cc4c3)cnn2c1N [Compound 1.1.126, 1-(5-((1R,3s,5S)-8-(4H-1,2,4-triazole-3-carbonyl)-8-azabicyclo[3.2.1]octan-3-yl)-7-amino-3-(6-(hydroxymethyl)quinolin-3-yl)pyrazolo[1,5-a]pyrimidin-6-yl)ethanone] | 1000 to 10000 nM | 1000 to 10000 nM |
| CC(=O)c1c([C@@H]2C[C@H]3CC[C@@H](C2)N3C(=O)c2nnc[nH]2)nc2c(-c3ccc(-n4cnc(C)c4)nc3)cnn2c1N [Compound 1.1.128, 1-(5-((1R,3s,5S)-8-(4H-1,2,4-triazole-3-carbonyl)-8-azabicyclo[3.2.1]octan-3-yl)-7-amino-3-(6-(4-methyl-1H-imidazol-1-yl)pyridin-3-yl)pyrazolo[1,5-a]pyrimidin-6-yl)ethanone] | > 10000 nM | > 10000 nM |
| CC(=O)c1c([C@@H]2C[C@H]3CC[C@@H](C2)N3C(=O)c2nnc[nH]2)nc2c(-c3ccc(-n4ccnc4)nc3)cnn2c1N [Compound 1.1.129, 1-(3-(6-(1H-imidazol-1-yl)pyridin-3-yl)-5-((1R,3s,5S)-8-(4H-1,2,4-triazole-3-carbonyl)-8-azabicyclo[3.2.1]octan-3-yl)-7-aminopyrazolo[1,5-a]pyrimidin-6-yl)ethanone] | > 10000 nM | > 10000 nM |
| CC(=O)c1c([C@@H]2C[C@H]3CC[C@@H](C2)N3C(=O)c2nnc(N)[nH]2)nc2c(-c3ccc(-n4cc(C)cn4)nc3)cnn2c1N [Compound 1.1.130, 1-(7-amino-5-((1R,3s,5S)-8-(5-amino-4H-1,2,4-triazole-3-carbonyl)-8-azabicyclo[3.2.1]octan-3-yl)-3-(6-(4-methyl-1H-pyrazol-1-yl)pyridin-3-yl)pyrazolo[1,5-a]pyrimidin-6-yl)ethanone] | 1 to 100 nM | 1 to 100 nM |
| CC(=O)c1c([C@@H]2C[C@H]3CC[C@@H](C2)N3C(=O)c2ccn[nH]2)nc2c(-c3ccc(-n4cc(C)cn4)nc3)cnn2c1N [Compound 1.1.131, 1-(5-((1R,3s,5S)-8-(1H-pyrazole-5-carbonyl)-8-azabicyclo[3.2.1]octan-3-yl)-7-amino-3-(6-(4-methyl-1H-pyrazol-1-yl)pyridin-3-yl)pyrazolo[1,5-a]pyrimidin-6-yl)ethanone] | 100 to 1000 nM | 100 to 1000 nM |
| CC(=O)c1c([C@@H]2C[C@H]3CC[C@@H](C2)N3C(=O)c2cc(N)n[nH]2)nc2c(-c3ccc(-n4cc(C)cn4)nc3)cnn2c1N [Compound 1.1.132, 1-(7-amino-5-((1R,3s,5S)-8-(3-amino-1H-pyrazole-5-carbonyl)-8-azabicyclo[3.2.1]octan-3-yl)-3-(6-(4-methyl-1H-pyrazol-1-yl)pyridin-3-yl)pyrazolo[1,5-a]pyrimidin-6-yl)ethanone] | 1 to 100 nM | 1 to 100 nM |
| CC(=O)c1c([C@@H]2C[C@H]3CC[C@@H](C2)N3C(=O)CO)nc2c(-c3ccc(-n4ccc(C)n4)nc3)cnn2c1N [Compound 1.1.133, 1-((1R,3s,5S)-3-(6-acetyl-7-amino-3-(6-(3-methyl-1H-pyrazol-1-yl)pyridin-3-yl)pyrazolo[1,5-a]pyrimidin-5-yl)-8-azabicyclo[3.2.1]octan-8-yl)-2-hydroxyethanone] | 100 to 1000 nM | 1000 to 10000 nM |
| CC(=O)c1c([C@@H]2C[C@H]3CC[C@@H](C2)N3C(=O)CO)nc2c(-c3ccc(-n4cc(C)cn4)nc3)cnn2c1N [Compound 1.1.134, 1-((1R,3s,5S)-3-(6-acetyl-7-amino-3-(6-(4-methyl-1H-pyrazol-1-yl)pyridin-3-yl)pyrazolo[1,5-a]pyrimidin-5-yl)-8-azabicyclo[3.2.1]octan-8-yl)-2-hydroxyethanone] | 1 to 100 nM | 100 to 1000 nM |
| CC(=O)c1c([C@@H]2C[C@H]3CC[C@@H](C2)N3C(=O)c2nnc[nH]2)nc2c(-c3ccc(-n4cc(C)cn4)nc3)cnn2c1N [Compound 1.1.135, 1-(5-((1R,3s,5S)-8-(4H-1,2,4-triazole-3-carbonyl)-8-azabicyclo[3.2.1]octan-3-yl)-7-amino-3-(6-(4-methyl-1H-pyrazol-1-yl)pyridin-3-yl)pyrazolo[1,5-a]pyrimidin-6-yl)ethanone] | 1 to 100 nM | 1 to 100 nM |
| CC(=O)c1c([C@@H]2C[C@H]3CC[C@@H](C2)N3C(=O)c2nnc[nH]2)nc2c(-c3ccc(-n4ccc(C)n4)nc3)cnn2c1N [Compound 1.1.136, 1-(5-((1R,3s,5S)-8-(4H-1,2,4-triazole-3-carbonyl)-8-azabicyclo[3.2.1]octan-3-yl)-7-amino-3-(6-(3-methyl-1H-pyrazol-1-yl)pyridin-3-yl)pyrazolo[1,5-a]pyrimidin-6-yl)ethanone] | 1 to 100 nM | 100 to 1000 nM |
| CCn1ccc(-c2ccc(-c3cnn4c(N)c(C(C)=O)c([C@@H]5C[C@H]6CC[C@@H](C5)N6C(=O)CO)nc34)cn2)n1 [Compound 1.1.137, 1-((1R,3s,5S)-3-(6-acetyl-7-amino-3-(6-(1-ethyl-1H-pyrazol-3-yl)pyridin-3-yl)pyrazolo[1,5-a]pyrimidin-5-yl)-8-azabicyclo[3.2.1]octan-8-yl)-2-hydroxyethanone] | 1 to 100 nM | 100 to 1000 nM |
| CCn1ccc(-c2ccc(-c3cnn4c(N)c(C(C)=O)c([C@@H]5C[C@H]6CC[C@@H](C5)N6C(=O)c5nnc[nH]5)nc34)cn2)n1 [Compound 1.1.138, 1-(5-((1R,3s,5S)-8-(4H-1,2,4-triazole-3-carbonyl)-8-azabicyclo[3.2.1]octan-3-yl)-7-amino-3-(6-(1-ethyl-1H-pyrazol-3-yl)pyridin-3-yl)pyrazolo[1,5-a]pyrimidin-6-yl)ethanone] | 1 to 100 nM | 1 to 100 nM |
| CC(=O)c1c([C@@H]2C[C@H]3CC[C@@H](C2)N3C(=O)c2n[nH]c(N(C)C)n2)nc2c(-c3ccc(-c4ccccc4)nc3)cnn2c1N [Compound 1.1.139, 1-(7-amino-5-((1R,3s,5S)-8-(5-(dimethylamino)-1H-1,2,4-triazole-3-carbonyl)-8-azabicyclo[3.2.1]octan-3-yl)-3-(6-phenylpyridin-3-yl)pyrazolo[1,5-a]pyrimidin-6-yl)ethanone] | 1000 to 10000 nM | 1000 to 10000 nM |
| CC(=O)c1c([C@@H]2C[C@H]3CC[C@@H](C2)N3C(=O)c2n[nH]c(N)n2)nc2c(-c3ccc(-c4ccccc4)nc3)cnn2c1N [Compound 1.1.140, 1-(7-amino-5-((1R,3s,5S)-8-(5-amino-1H-1,2,4-triazole-3-carbonyl)-8-azabicyclo[3.2.1]octan-3-yl)-3-(6-phenylpyridin-3-yl)pyrazolo[1,5-a]pyrimidin-6-yl)ethanone] | 1 to 100 nM | 1 to 100 nM |
| CC(=O)c1c([C@@H]2C[C@H]3CC[C@@H](C2)N3C(=O)c2cn[nH]c2N)nc2c(-c3ccc(-c4ccccc4)nc3)cnn2c1N [Compound 1.1.141, 1-(7-amino-5-((1R,3s,5S)-8-(5-amino-1H-pyrazole-4-carbonyl)-8-azabicyclo[3.2.1]octan-3-yl)-3-(6-phenylpyridin-3-yl)pyrazolo[1,5-a]pyrimidin-6-yl)ethanone] | 1 to 100 nM | 1 to 100 nM |
| CC(=O)Nc1nc(C(=O)N2[C@@H]3CC[C@H]2C[C@H](c2nc4c(-c5ccc(-c6ccccc6)nc5)cnn4c(N)c2C(C)=O)C3)n[nH]1 [Compound 1.1.142, N-(3-((1R,3s,5S)-3-(6-acetyl-7-amino-3-(6-phenylpyridin-3-yl)pyrazolo[1,5-a]pyrimidin-5-yl)-8-azabicyclo[3.2.1]octane-8-carbonyl)-1H-1,2,4-triazol-5-yl)acetamide] | 100 to 1000 nM | 100 to 1000 nM |
| CC(=O)c1c([C@@H]2C[C@H]3CC[C@@H](C2)N3C(=O)c2nnc[nH]2)nc2c(-c3cnn(-c4ccccc4)c3)cnn2c1N [Compound 1.1.143, 1-(5-((1R,3s,5S)-8-(4H-1,2,4-triazole-3-carbonyl)-8-azabicyclo[3.2.1]octan-3-yl)-7-amino-3-(1-phenyl-1H-pyrazol-4-yl)pyrazolo[1,5-a]pyrimidin-6-yl)ethanone] | 1 to 100 nM | 1 to 100 nM |
| COc1ccc(-c2ccc(-c3cnn4c(N)c(C(C)=O)c([C@@H]5C[C@H]6CC[C@@H](C5)N6C(=O)c5nnc(N)[nH]5)nc34)cn2)cc1F [Compound 1.1.144, 1-(7-amino-5-((1R,3s,5S)-8-(5-amino-4H-1,2,4-triazole-3-carbonyl)-8-azabicyclo[3.2.1]octan-3-yl)-3-(6-(3-fluoro-4-methoxyphenyl)pyridin-3-yl)pyrazolo[1,5-a]pyrimidin-6-yl)ethanone] | 1 to 100 nM | 1 to 100 nM |
| CC(=O)c1c([C@@H]2C[C@H]3CC[C@@H](C2)N3C(=O)c2nnc[nH]2)nc2c(-c3ccc(-c4ccccc4F)nc3)cnn2c1N [Compound 1.1.145, 1-(5-((1R,3s,5S)-8-(4H-1,2,4-triazole-3-carbonyl)-8-azabicyclo[3.2.1]octan-3-yl)-7-amino-3-(6-(2-fluorophenyl)pyridin-3-yl)pyrazolo[1,5-a]pyrimidin-6-yl)ethanone] | 1 to 100 nM | 1 to 100 nM |
| CC(=O)c1c([C@@H]2C[C@H]3CC[C@@H](C2)N3C(=O)c2nnc[nH]2)nc2c(-c3ccc(-c4ccccn4)nc3)cnn2c1N [Compound 1.1.146, 1-(3-(2,2′-bipyridin-5-yl)-5-((1R,3s,5S)-8-(4H-1,2,4-triazole-3-carbonyl)-8-azabicyclo[3.2.1]octan-3-yl)-7-aminopyrazolo[1,5-a]pyrimidin-6-yl)ethanone] | 1 to 100 nM | 1 to 100 nM |

Source: patent publication US9227971B2, “Pyrazolo[1,5-a]pyrimidine compounds as mTOR inhibitors” (Merck Sharp & Dohme Corp., priority 2010, dated 2016)
